The target of assay [1] is T1, aldosterone synthase (CYP11B2) (Macaca fascicularis, UniProt A0A2K5UPL9).
T1 construct: cynomolgus adrenal gland mitochondria as the source of aldosterone synthase (CYP11B2); from tissue; host or cells: cynomolgus monkey adrenal gland mitochondria
T1 sequence (A0A2K5UPL9 1-503): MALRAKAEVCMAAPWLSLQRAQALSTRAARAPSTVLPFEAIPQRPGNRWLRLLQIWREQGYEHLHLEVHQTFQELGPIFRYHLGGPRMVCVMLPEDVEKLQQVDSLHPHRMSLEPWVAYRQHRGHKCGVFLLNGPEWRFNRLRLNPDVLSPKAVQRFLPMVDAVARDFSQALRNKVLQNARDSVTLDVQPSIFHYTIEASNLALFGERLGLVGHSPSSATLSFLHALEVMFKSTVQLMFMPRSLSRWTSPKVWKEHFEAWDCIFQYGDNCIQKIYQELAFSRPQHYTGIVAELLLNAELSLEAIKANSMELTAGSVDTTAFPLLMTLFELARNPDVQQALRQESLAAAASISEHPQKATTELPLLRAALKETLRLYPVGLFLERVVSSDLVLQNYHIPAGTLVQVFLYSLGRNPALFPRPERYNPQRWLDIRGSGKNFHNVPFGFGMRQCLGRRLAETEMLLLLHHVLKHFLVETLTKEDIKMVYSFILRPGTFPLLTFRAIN
The experiment in a line: Inhibition of aldosterone synthase (cynomolgus adrenal mitochondria, aldosterone by mass spectrometry). It counts as biochemical, cynomolgus monkey. The following applies: cynomolgus adrenal gland mitochondria, 2 μM corticosterone substrate, 90 minutes at 37° C. As to the method:
(§1) The aldosterone synthase and cortisol synthase inhibition assays employ cynomolgus adrenal gland mitochondria as the source of aldosterone synthase (CYP11B2) and cortisol synthase (CYP11B1). Mitochondria are prepared from frozen cynomolgus monkey adrenal glands according to Method A described in by J. D. McGarry et al. (Biochem. J., 1983, 214, 21-28), with a final resuspension in the AT buffer described in R. Yamaguchi et al. (Cell Death and Differentiation, 2007, 14, 616-624), frozen as aliquots in liquid nitrogen and stored at −80° C. until use. Activity of CYP11B2 and CYP11B1 in these preparations is defined as the amount of enzyme that generates 1 pmol of product in one hour under the conditions described.
Assays are performed in 96-well format in a final volume of 60 µL/well, containing 100 mM potassium phosphate, pH 7.4, 1% (v/v) DMSO, and additionally, 2 μM of corticosterone and 50 units of CYP11B2 activity. Reactions are started by the addition of NADPH to 1 mM and allowed to proceed for 90 minutes at 37° C. Reactions are terminated by the addition of 60 μL of MeCN containing an internal standard for mass spectrometry. One hundred microliters are then transferred to a glass filter plate and centrifuged at 570×g for 5 minutes and the filtrate is collected. Reaction product aldosterone is quantified by mass spectrometry. To determine the assay blank value (0% activity), NADPH is omitted from some reactions.
Dose dependent inhibition is quantified by the inclusion of compound at various concentrations. Maximum activity (100%) is defined by reactions containing NADPH, but without compound. Activities at each concentration are expressed as a percentage of the maximum activity (y-axis) and plotted against concentration of compound (x-axis) and the concentration corresponding to 50% activity (IC50) determined using the XLFit curve-fitting program using a 4-parameter logistic model.

In assay [2] the target is cortisol synthase (CYP11B1) (Macaca fascicularis, UniProt A0A2K5ULY1). The experiment in a line: Inhibition of cortisol synthesis (cynomolgus adrenal mitochondria, cortisol by mass spectrometry). It counts as biochemical, cynomolgus monkey. Particulars: cynomolgus adrenal gland mitochondria, 11-deoxycortisol as substrate, cortisol measured as product; read-out: CYP11B1 Inhibition IC50. The protocol:
as §1, with “described. Dose dependent inhibition is quantified by the inclusion of compound at various concentrations. Maximum activity (100%) is defined by reactions containing NADPH, but without compound. Activities at each concentration are expressed as a percentage of the maximum activity (y-axis) and plotted against concentration of compound (x-axis) and the concentration corresponding to 50% activity (IC50) determined using the XLFit curve-fitting program using a 4-parameter logistic model. Assays are performed as for aldosterone synthase except for the use of 150 units of CYP11B1, 11-deoxycortisol as substrate and cortisol measured as product.” for “described.”

The structures appear in SMILES notation. pIC50: −log10 of the molar value.

With `CS(=O)(=O)CCCOc1ccc(Cc2onc3c2C(=O)CC(CC2CC2)C3)cc1` (centres unmarked) [Cpd 24, 6-Cyclopropylmethyl-3-[4-(3-methanesulfonyl-propoxy)-benzyl]-6,7-dihydro-5H-benzo[c]isoxazol-4-one], the pIC50 was 7.77 in assay [1] and 5.89 in assay [2].

With `CC1(C)CC(=O)c2c(noc2Cc2ccc(I)cc2)C1` [Cpd 25, 3-(4-Iodo-benzyl)-6,6-dimethyl-6,7-dihydro-5H-benzo[c]isoxazol-4-one], the pIC50 in assay [1] is 7.54; in assay [2], 5.55.

`O=C1CC(Cc2ccccc2)Cc2noc(Cc3ccccc3)c21` (centres unmarked) [Cpd 26, 3,6-Dibenzyl-6,7-dihydro-5H-benzo[c]isoxazol-4-one]: the values for the pIC50 in assay [1] and in assay [2] were 7.31 and 5.64, respectively.

With `CC1(C)CC(=O)c2c(noc2Cc2ccc(OCCCS(C)(=O)=O)cc2)C1` [Cpd 27, 3-[4-(3-Methanesulfonyl-propoxy)-benzyl]-6,6-dimethyl-6,7-dihydro-5H-benzo[c]isoxazol-4-one], the figures for the pIC50 in assay [1] and in assay [2] were 7.23 and 5.47, respectively.

As for `N#Cc1ccc(Cc2onc3c2C(=O)CC(Cc2ccccc2)C3)cc1` (centres unmarked) [Cpd 28, 4-(6-Benzyl-4-oxo-4,5,6,7-tetrahydro-benzo[c]isoxazol-3-ylmethyl)-benzonitrile], the figures for the negative logarithm of the IC50 (pIC50) in assay [1] and in assay [2] were 7.19 and 5.31, respectively.

In the case of `CC1(C)CC(=O)c2c(noc2Cc2ccc(OCCS(C)(=O)=O)cc2)C1` [Cpd 29, 3-[4-(2-Methanesulfonyl-ethoxy)-benzyl]-6,6-dimethyl-6,7-dihydro-5H-benzo[c]isoxazol-4-one], the results for the pIC50 in assay [1] and in assay [2] were 7.14 and 5.13, respectively.

On to `N#Cc1ccc(Cc2onc3c2C(=O)CC(CC2CC2)C3)cc1` (centres unmarked) [Cpd 30, 4-(6-Cyclopropylmethyl-4-oxo-4,5,6,7-tetrahydro-benzo[c]isoxazol-3-ylmethyl)-benzonitrile], for which the negative-log IC50 (pIC50) in assay [1] is 7.13; in assay [2], 4.85.

As to `CC1(C)CC(=O)c2c(noc2Cc2cccc(F)c2)C1` [Cpd 31, 3-(3-Fluoro-benzyl)-6,6-dimethyl-6,7-dihydro-5H-benzo[c]isoxazol-4-one], the pIC50 in assay [1] was 7.08; in assay [2], 5.13.

Turning to `CC1(C)CC(=O)c2c(noc2Cc2ccc(Br)cc2)C1` [Cpd 33, 3-(4-Bromo-benzyl)-6,6-dimethyl-6,7-dihydro-5H-benzo[c]isoxazol-4-one], the pIC50 in assay [1] was 7.04; in assay [2] it was 5.39.

Consider `COc1ccc(Cc2onc3c2C(=O)CC(C)(C)C3)cc1C#N` [Cpd 34, 5-(6,6-Dimethyl-4-oxo-4,5,6,7-tetrahydro-benzo[c]isoxazol-3-ylmethyl)-2-methoxy-benzonitrile], for which the pIC50 was 6.92 in assay [1] and 4.60 in assay [2].

For `CC1(C)CC(=O)c2c(noc2Cc2ccc3c(c2)NC(=O)CO3)C1` [Cpd 35, 6-(6,6-Dimethyl-4-oxo-4,5,6,7-tetrahydro-benzo[c]isoxazol-3-ylmethyl)-4H-benzo[1,4]oxazin-3-one], the pIC50 in assay [1] is 6.80; in assay [2], 5.28.

In the case of `CC1CC(=O)c2c(noc2Cc2ccc(C#N)cc2)C1` (centres unmarked) [Cpd 36, 4-(6-Methyl-4-oxo-4,5,6,7-tetrahydro-benzo[c]isoxazol-3-ylmethyl)-benzonitrile], the negative logarithm of the IC50 (pIC50) in assay [1] is 6.70; in assay [2], 5.12.

For the compound `CC1(C)CC(=O)c2c(noc2Cc2ccc(C#N)c(F)c2)C1` [Cpd 37, 4-(6,6-Dimethyl-4-oxo-4,5,6,7-tetra hydro-benzo[c]isoxazol-3-ylmethyl)-2-fluoro-benzonitrile], the negative logarithm of the IC50 (pIC50) was 7.13 in assay [1] and 4.96 in assay [2].

For the compound `N#Cc1ccc(Cc2onc3c2C(=O)CC2(CCC2)C3)cc1` [Cpd 38, 4-(-6,6-spiro-cyclobutyl-4-oxo-4,5,6,7-tetrahydro-benzo[c]isoxazol-3-ylmethyl)-benzonitrile], the negative-log IC50 (pIC50) is 7.26 in assay [1] and 6.00 in assay [2].

For the compound `CC1(C)CC(=O)c2c(noc2Cc2ccc(C(=O)O)cc2)C1` [Cpd 40, 4-(6,6-Dimethyl-4-oxo-4,5,6,7-tetrahydro-benzo[c]isoxazol-3-ylmethyl)-benzoic acid], the values for the pIC50 in assay [1] and in assay [2] were less than 6.00 and less than 4.00, respectively.

As for `CC1CC(=O)c2c(noc2Cc2ccc(C(=O)O)cc2)C1` (centres unmarked) [Cpd 41, 4-(6-Methyl-4-oxo-4,5,6,7-tetrahydro-benzo[c]isoxazol-3-ylmethyl)-benzoic acid], the pIC50 in assay [1] is 6.18; in assay [2], 4.70.

`O=C(O)c1ccc(Cc2onc3c2C(=O)CC(Cc2ccccc2)C3)cc1` (centres unmarked) [Cpd 42, 4-(6-Benzyl-4-oxo-4,5,6,7-tetrahydro-benzo[c]isoxazol-3-ylmethyl)-benzoic acid]: the pIC50 in assay [1] was 6.74; in assay [2] it was less than 4.00.

Turning to `O=C(O)c1ccc(Cc2onc3c2C(=O)CC(CC2CC2)C3)cc1` (centres unmarked) [Cpd 45, 4-(6-Cyclopropylmethyl-4-oxo-4,5,6,7-tetrahydro-benzo[c]isoxazol-3-ylmethyl)-benzoic acid], the results for the pIC50 in assay [1] and in assay [2] were 6.38 and 4.19, respectively.

Turning to `CC1(C)CC(=O)c2c(noc2Cc2ccc(C(=O)N3CC[C@@H](O)C3)cc2)C1` [Cpd 46, 3-[4-((R)-3-Hydroxy-pyrrolidine-1-carbonyl)-benzyl]-6,6-dimethyl-6,7-dihydro-5H-benzo[c]isoxazol-4-one], the pIC50 is 6.89 in assay [1] and 5.24 in assay [2].

On to `CC(C)C1CC(=O)c2c(noc2Cc2ccc(OCCCS(C)(=O)=O)cc2)C1` (centres unmarked) [Cpd 47, 6-Isopropyl-3-[4-(3-methanesulfonyl-propoxy)-benzyl]-6,7-dihydro-5H-benzo[c]isoxazol-4-one], for which the pIC50 in assay [1] is 7.70; in assay [2] it was 6.89.

In the case of `CC1CC(=O)c2c(noc2Cc2ccc(OCCCS(C)(=O)=O)cc2)C1` (centres unmarked) [Cpd 48, 3-[4-(3-Methanesulfonyl-propoxy)-benzyl]-6-methyl-6,7-dihydro-5H-benzo[c]isoxazol-4-one], the pIC50 in assay [1] is 7.34; in assay [2] it was 6.17.

On to `CS(=O)(=O)CCCOc1ccc(Cc2onc3c2C(=O)CC(Cc2ccccc2)C3)cc1` (centres unmarked) [Cpd 49, 6-Benzyl-3-[4-(3-methanesulfonyl-propoxy)-benzyl]-6,7-dihydro-5H-benzo[c]isoxazol-4-one], for which the pIC50 is 6.82 in assay [1] and 5.96 in assay [2].

Consider `CS(=O)(=O)CCCOc1ccc(Cc2onc3c2C(=O)CC2(CCC2)C3)cc1` [Cpd 50, 3-[4-(3-Methanesulfonyl-propoxy)-benzyl]-6-6-spirocyclebutyl-6,7-dihydro-5H-benzo [c]isoxazol-4-one], for which the pIC50 in assay [1] is 7.14; in assay [2] it was 6.24.

`NC(=O)c1ccc(Cc2onc3c2C(=O)CC(CC2CC2)C3)cc1` (centres unmarked) [Cpd 51, 4-(6-Cyclopropylmethyl-4-oxo-4,5,6,7-tetrahydro-benzo[c]isoxazol-3-ylmethyl)-benzamide]: the pIC50 in assay [1] was 7.68; in assay [2], 5.43.

As for `CC1(C)CC(=O)c2c(noc2Cc2ccc(C(=O)N3CCCC3)cc2)C1` [Cpd 52, 6,6-Dimethyl-3-[4-(pyrrolidine-1-carbonyl)-benzyl]-6,7-dihydro-5H-benzo[c]isoxazol-4-one], the negative logarithm of the IC50 (pIC50) in assay [1] was 7.49; in assay [2], 4.85.

As usually defined, the pIC50 is the negative decadic logarithm of the IC50, by convention in mol/L.

For the origin of these results see patent US10131642B1, “Aldosterone synthase inhibitors” (Boehringer Ingelheim International GmbH, priority 2015, dated 2018).
